In PubChem BioAssay AID1288 (Columbia University Molecular Screening Center, 2008):
The source made the active and inactive calls. No rule for the calls is given here.

assay: inhibitors of TNFa-induced E-selectin expression, confirmation, imaging, retest plus dose response, cell count (AID 1288); conditions: human endothelial cells, TNFa-induced E-selectin, imaging; at 2 µM; stronger effect = higher value;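 also: 0% = stimulated vehicle wells and 100% = unstimulated vehicle wells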

Compound | inhibition
CCOc1ccc(OCC)c(NC(=O)CN2CCN(c3cccc(C)c3)CC2)c1 | -3.01% (inactive)
Cc1nnc(SCC(=O)N(C)c2ccccc2)n1Cc1ccccc1 | 1.26% (inactive)
O=C1c2ccccc2C(Nc2ccc(S(=O)(=O)N3CCCCCC3)cc2)N1Cc1ccco1 (stereo unspecified) | 1.55% (inactive)
COc1ccc(CCN(C)c2ccc(S(=O)(=O)N3CCCC3)cn2)cc1OC | 28.4% (inactive)
CCS(=O)(=O)c1ccc2oc(Nc3ccc(C(C)C)cc3)nc2c1 | 4.39% (inactive)
CCn1c(SCC(=O)Nc2ccccc2OC)nnc1-c1cnccn1 | 6.59% (inactive)
CN(CC(=O)Nc1ccc(Cl)cc1)c1ccc(S(=O)(=O)N2CCCCC2)cc1[N+](=O)[O-] | 7.17% (inactive)
Cc1noc(C)c1S(=O)(=O)N1CCC(C(=O)N2CCN(Cc3ccc4c(c3)OCO4)CC2)CC1 | 7.72% (inactive)
Cc1ccc(-n2c(SCC(=O)Nc3nccs3)nc3c(c2=O)SCC3)cc1 | 5.08% (inactive)
NC(=S)NNc1cccc(Cl)c1 | 6.61% (inactive)
O=C(/C=C/c1ccccc1)Nc1ncn[nH]1 | 5.62% (inactive)
COc1cccc(-n2c(SC3CCOC3=O)nc3ccccc3c2=O)c1 (stereo unspecified) | 27.9% (inactive)
CC(C)C(=O)N(c1ccc(F)cc1)C1C=CS(=O)(=O)C1 (stereo unspecified) | -2.25% (inactive)
Cc1cc(OCC(=O)Nc2ccncc2)c(C)cc1Br | 3.41% (inactive)
COc1ccc(NC(=O)c2cc(-c3ccc(OC)c(OC)c3)on2)cc1OC | 9.77% (inactive)
COc1ccc(-c2nc(CNS(=O)(=O)c3ccc(OC)c(OC)c3)cs2)cc1 | 8% (inactive)
CN(Cc1ccccc1)C(=S)NC(=O)C1CCCCC1 | 8.28% (inactive)
CCn1c(SCc2nc(CC(=O)Nc3ccccc3OC)no2)nnc1-c1cccs1 | 7.75% (inactive)
COC(=O)Cn1cnc2c1c(=O)n(C)c(=O)n2C | 6.02% (inactive)
COc1ccc(-c2noc(CCC(N)=O)n2)cc1OC | 16.5% (inactive)
COCCNC(=O)c1ccccc1NC(=O)c1cccc([N+](=O)[O-])c1C | 0.34% (inactive)
CCCn1nnnc1SCC(=O)N1CCOCC1 | 20.5% (inactive)
COc1ccc2nc(NC(=O)CSC3=NCCS3)sc2c1 | -0.86% (inactive)
Cc1cc(=O)[nH]c(SCC(=O)NCc2ccco2)n1 | 5.37% (inactive)
CCCOc1ccc(C(=O)NCC(c2cccs2)N(C)C)cc1 (stereo unspecified) | -0.69% (inactive)
O=C(CCc1ccccc1)Nc1ncc2c(n1)CCCC2=O | 14.5% (inactive)

Compound | inhibition
CCOC(=O)C1C(=O)CC(C)(O)C(C(=O)OCC)C1c1ccccc1 (stereo unspecified) | -2.22% (inactive)
CC(C)(CO)NCC(O)Cn1cc(C=O)c2ccccc21 (stereo unspecified) | -5.31% (inactive)
COc1ccccc1-n1c(=O)[nH]c2c(C(N)=O)nc(C3CCCCC3)nc21 | 13.4% (inactive)
O=C(O)COc1ccc(/C=N/n2cnc3scc(-c4cccs4)c3c2=O)cc1 | 5.08% (inactive)
c1ccc(-n2c(-c3ccncc3)nnc2N2CCOCC2)cc1 | 5.7% (inactive)
Cc1ccc(S(=O)(=O)N(C)CCCC(=O)Nc2cc(C)ccc2C)cc1 | -2.3% (inactive)
O=C(c1ccccc1F)N1CCN(c2ccccc2F)CC1 | 27.8% (inactive)
COCCCNC(=O)COc1ccc(S(=O)(=O)NCc2ccccc2)cc1Cl | 7.46% (inactive)
Cc1cc(SCc2cc(=O)[nH]c3ccccc23)nc2ccccc12 | -9.63% (inactive)
Cc1cccc(N2CCN(c3cccc(C)c3)C2c2cccnc2)c1 | 5.98% (inactive)
Nc1ccc2c(c1)N1CCN=C1S2 | 11.1% (inactive)
O=C(Nc1ccccc1)N(CCc1ccncc1)C1CCCCC1 | 5.75% (inactive)
O=C1CC(c2ccccc2)SC(N(c2ccccc2)c2ccccc2)=N1 (stereo unspecified) | 26.1% (inactive)
Cc1cc(NC(=O)CSc2nnc(Cc3ccccc3)n2C)no1 | 1.71% (inactive)
CC(/C=C/c1ccco1)=N\NC(=O)c1cc(C)[nH]n1 | 12% (inactive)
CCOC(=O)C[n+]1c(C)sc2ccc(OC)cc21 | 5.31% (inactive)
CCN(CC)c1ccc(NC(=O)C2CC3CCC2C3)cc1 (stereo unspecified) | 24.7% (inactive)
COc1ccc(N=C2SCC(=O)N2c2ccc(OC)cc2)cc1 | -8.28% (inactive)
CC(=O)N[C@@H](Cc1c[nH]c2ccccc12)C(=O)OCC(=O)Nc1ccc(S(=O)(=O)N(C)C)cc1 | 7.84% (inactive)
COc1ccccc1C(=O)NCCN1CCN(C(=O)c2ccccc2OC)CC1 | 9.74% (inactive)
O=C(COC(=O)CCc1ccc(S(=O)(=O)N2CCOCC2)cc1)NC1CCCC1 | 2.85% (inactive)
COc1ccccc1CNC(=O)CSc1nnc2ccc(-c3cccnc3)nn12 | 2.18% (inactive)
O=C(CCc1ccccc1)NCCC1=CCCCC1 | 6.52% (inactive)
CCC(C)NC(=O)C(NS(=O)(=O)c1cccc2nsnc12)c1ccccc1 (stereo unspecified) | 9.11% (inactive)
CCOC(=O)N1CCN(C(=S)NC(=O)c2cncc(Br)c2)CC1 | 19.8% (inactive)
